Read-outs that look alike come from different tables or passages of the source.
How the values were obtained:
[1] = target: T1, AEA-DA lipid probe targets in Neuro2a cells (Mus musculus, UniProt Q62186)
T1 sequence (Q62186 24-172): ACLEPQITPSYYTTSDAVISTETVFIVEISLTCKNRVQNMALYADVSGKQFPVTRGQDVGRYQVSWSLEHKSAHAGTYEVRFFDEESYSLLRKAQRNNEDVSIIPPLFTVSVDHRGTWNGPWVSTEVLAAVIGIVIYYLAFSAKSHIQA

[2] = target: T2, AEA-DA lipid probe targets in Neuro2a cells (Mus musculus, UniProt Q8BTV1)
T2 sequence (Q8BTV1 42-347): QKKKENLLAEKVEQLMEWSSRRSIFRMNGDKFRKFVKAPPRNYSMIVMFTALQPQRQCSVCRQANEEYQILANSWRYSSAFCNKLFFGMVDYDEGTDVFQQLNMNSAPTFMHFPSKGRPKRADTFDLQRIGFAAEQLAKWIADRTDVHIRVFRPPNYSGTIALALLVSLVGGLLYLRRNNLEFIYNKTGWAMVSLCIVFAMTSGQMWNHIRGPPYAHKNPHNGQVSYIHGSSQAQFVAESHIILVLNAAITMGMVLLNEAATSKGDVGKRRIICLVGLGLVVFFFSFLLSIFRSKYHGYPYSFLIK

[3] = target: AEA-DA lipid probe targets in Neuro2a cells (Mus musculus, UniProt Q9CQ45)
[4] = target: T3, AEA-DA lipid probe targets in Neuro2a cells (Mus musculus, UniProt Q9EQI8)
T3 sequence (Q9EQI8 1-283): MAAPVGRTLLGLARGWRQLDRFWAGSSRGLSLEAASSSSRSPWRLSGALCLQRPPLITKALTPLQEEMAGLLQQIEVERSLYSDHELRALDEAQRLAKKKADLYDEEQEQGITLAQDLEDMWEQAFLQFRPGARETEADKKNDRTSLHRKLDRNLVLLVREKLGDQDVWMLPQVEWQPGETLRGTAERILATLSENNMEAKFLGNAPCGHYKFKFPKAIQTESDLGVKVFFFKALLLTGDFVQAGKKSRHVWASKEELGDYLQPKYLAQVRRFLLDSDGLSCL

[5] = target: T4, AEA-DA lipid probe targets in Neuro2a cells (Mus musculus, UniProt Q9DC61)
T4 sequence (Q9DC61 34-524): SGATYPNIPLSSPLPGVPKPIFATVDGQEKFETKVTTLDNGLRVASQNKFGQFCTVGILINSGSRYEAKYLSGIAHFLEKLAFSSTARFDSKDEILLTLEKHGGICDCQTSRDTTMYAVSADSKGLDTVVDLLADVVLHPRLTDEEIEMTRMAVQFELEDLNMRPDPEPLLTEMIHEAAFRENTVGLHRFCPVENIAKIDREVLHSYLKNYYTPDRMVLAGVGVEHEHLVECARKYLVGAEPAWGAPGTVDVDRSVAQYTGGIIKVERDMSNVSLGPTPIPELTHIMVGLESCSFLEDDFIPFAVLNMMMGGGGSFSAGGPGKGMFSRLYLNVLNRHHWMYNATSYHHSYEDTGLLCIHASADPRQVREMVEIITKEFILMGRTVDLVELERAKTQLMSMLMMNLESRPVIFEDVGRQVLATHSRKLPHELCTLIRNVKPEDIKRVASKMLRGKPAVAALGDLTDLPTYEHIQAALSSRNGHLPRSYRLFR

[6] = target: AEA-DA lipid probe targets in Neuro2a cells (Mus musculus, UniProt P15331)
[7] = target: T5, AEA-DA lipid probe targets in Neuro2a cells (Mus musculus, UniProt Q03517)
T5 sequence (Q03517 31-617): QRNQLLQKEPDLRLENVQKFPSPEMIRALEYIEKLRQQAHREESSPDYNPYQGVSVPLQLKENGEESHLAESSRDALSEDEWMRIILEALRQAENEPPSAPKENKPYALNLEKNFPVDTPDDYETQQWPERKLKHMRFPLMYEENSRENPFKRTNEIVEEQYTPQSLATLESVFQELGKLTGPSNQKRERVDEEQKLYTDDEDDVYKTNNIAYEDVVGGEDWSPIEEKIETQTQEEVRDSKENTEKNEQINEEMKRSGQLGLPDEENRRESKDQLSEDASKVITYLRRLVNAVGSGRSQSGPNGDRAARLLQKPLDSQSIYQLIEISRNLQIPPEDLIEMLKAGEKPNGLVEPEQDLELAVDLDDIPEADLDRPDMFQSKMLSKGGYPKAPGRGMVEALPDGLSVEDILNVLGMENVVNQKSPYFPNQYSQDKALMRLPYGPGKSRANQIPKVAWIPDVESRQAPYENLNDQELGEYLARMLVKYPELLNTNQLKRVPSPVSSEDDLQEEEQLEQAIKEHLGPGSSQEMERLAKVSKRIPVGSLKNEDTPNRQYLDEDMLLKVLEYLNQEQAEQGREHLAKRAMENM

[8] = target: T6, AEA-DA lipid probe targets in Neuro2a cells (Mus musculus, UniProt Q505D7); conditions: for SILAC ratio, OPA3 (Q505D7): Neuro2a cells, AEA-DA probe
T6 sequence (Q505D7 1-179): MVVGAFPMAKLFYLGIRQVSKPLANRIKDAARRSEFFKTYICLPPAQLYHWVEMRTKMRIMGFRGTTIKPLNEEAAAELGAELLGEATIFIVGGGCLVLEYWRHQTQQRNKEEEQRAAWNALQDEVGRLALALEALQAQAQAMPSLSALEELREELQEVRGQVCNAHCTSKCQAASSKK

Sequence of AEA-DA lipid probe targets in Neuro2a cells (Mus musculus, UniProt Q9CQ45) (Q9CQ45 31-171): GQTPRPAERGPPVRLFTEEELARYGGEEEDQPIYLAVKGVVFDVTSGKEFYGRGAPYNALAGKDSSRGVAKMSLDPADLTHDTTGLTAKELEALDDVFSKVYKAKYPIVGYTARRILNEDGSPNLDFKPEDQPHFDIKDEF
Sequence of AEA-DA lipid probe targets in Neuro2a cells (Mus musculus, UniProt P15331) (P15331 whole entry): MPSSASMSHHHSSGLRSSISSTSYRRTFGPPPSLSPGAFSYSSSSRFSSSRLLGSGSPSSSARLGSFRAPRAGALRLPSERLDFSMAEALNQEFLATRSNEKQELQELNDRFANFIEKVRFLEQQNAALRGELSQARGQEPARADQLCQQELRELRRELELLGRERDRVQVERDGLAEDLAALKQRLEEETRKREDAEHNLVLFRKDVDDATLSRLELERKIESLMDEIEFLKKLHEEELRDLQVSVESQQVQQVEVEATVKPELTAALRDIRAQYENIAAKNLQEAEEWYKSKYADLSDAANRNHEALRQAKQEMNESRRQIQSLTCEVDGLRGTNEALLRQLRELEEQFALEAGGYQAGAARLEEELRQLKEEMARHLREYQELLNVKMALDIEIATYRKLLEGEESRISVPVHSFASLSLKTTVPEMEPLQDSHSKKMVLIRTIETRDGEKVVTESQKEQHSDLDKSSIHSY

## CCCCC/C=C\C/C=C\C/C=C\C/C=C\CCCC(=O)NCCO [AEA, anandamide, reference compound]
[1]; competitor 200 μM
  SILAC ratio, Ssr4: 1.8
[2]; competitor 200 μM
  SILAC ratio, Tusc3: 1.7
[3]; competitor 200 μM
  SILAC ratio, Nenf: 1.4
[4]; competitor 200 μM
  SILAC ratio Mrpl46: 1.3
[5]; competitor 200 μM
  SILAC ratio, Pmpca: 1.9
[6]; competitor 200 μM
  SILAC ratio Prph: 1.0
[7]; competitor 200 μM
  SILAC ratio, Scg2: 1.2

## O=C(/C=C/c1cccnc1)NCCCCC1CCN(C(=O)c2ccccc2)CC1 [FK-866, reference compound]
[1]; competitor 25 μM
  SILAC ratio, Ssr4: 1.2
[2]; competitor 25 μM
  SILAC ratio, Tusc3: 1.3
[3]; competitor 25 μM
  SILAC ratio, Nenf: 2.6
[4]; competitor 25 μM
  SILAC ratio Mrpl46: 1.3
[5]; competitor 25 μM
  SILAC ratio, Pmpca: 1.2
[6]; competitor 25 μM
  SILAC ratio Prph: 1.2
[7]; competitor 25 μM
  SILAC ratio, Scg2: 1.0
[8]; competitor 25 μM
  SILAC ratio, OPA3 (Q505D7): 1.1
  SILAC ratio, Opa3: 1.1

## CN1CCN(C(=O)c2c(-c3ccccc3)c3cc([N+](=O)[O-])ccc3n2C)CC1 [KML110, (1-Methyl-5-nitro-3-phenyl-1H-indol-2-yl)(4-methylpiperazin-1-yl)methanone]
[1]; competitor 25 μM
  SILAC ratio, Ssr4: 1.5
[2]; competitor 25 μM
  SILAC ratio, Tusc3: 1.6
[3]; competitor 25 μM
  SILAC ratio, Nenf: 1.7
[4]; competitor 25 μM
  SILAC ratio Mrpl46: 1.3
[5]; competitor 25 μM
  SILAC ratio, Pmpca: 1.6
[6]; competitor 25 μM
  SILAC ratio Prph: 1.1
[7]; competitor 25 μM
  SILAC ratio, Scg2: 1.4
[8]; competitor 25 μM
  SILAC ratio, Opa3: 1.6

## CN1CCN(C(=O)c2[nH]c3ccc([N+](=O)[O-])cc3c2-c2ccccc2)CC1 [MJN228, (4-Methylpiperazin-1-yl)(5-nitro-3-phenyl-1H-indol-2-yl)methanone]
[1]; competitor 10 μM
  SILAC ratio, Ssr4: 1.5
[1]; competitor 25 μM
  SILAC ratio, Ssr4: 1.9
[1]; competitor 50 μM
  SILAC ratio, Ssr4: 2.4
[1]; competitor 100 μM
  SILAC ratio, Ssr4: 2.6
[2]; competitor 10 μM
  SILAC ratio, Tusc3: 1.2
[2]; competitor 25 μM
  SILAC ratio, Tusc3: 1.6
[2]; competitor 50 μM
  SILAC ratio, Tusc3: 1.6
[2]; competitor 100 μM
  SILAC ratio, Tusc3: 2.6
[3]; competitor 10 μM
  SILAC ratio, Nenf: 1.3
[3]; competitor 25 μM
  SILAC ratio, Nenf: 1.3
[3]; competitor 50 μM
  SILAC ratio, Nenf: 1.8
[3]; competitor 100 μM
  SILAC ratio, Nenf: 1.7
[4]; competitor 10 μM
  SILAC ratio Mrpl46: 1.0
[4]; competitor 25 μM
  SILAC ratio Mrpl46: 1.3
[4]; competitor 50 μM
  SILAC ratio Mrpl46: 1.0
[4]; competitor 100 μM
  SILAC ratio Mrpl46: 1.3
[5]; competitor 10 μM
  SILAC ratio, Pmpca: 1.2
[5]; competitor 25 μM
  SILAC ratio, Pmpca: 1.4
[5]; competitor 50 μM
  SILAC ratio, Pmpca: 1.4
[5]; competitor 100 μM
  SILAC ratio, Pmpca: 1.5
[6]; competitor 10 μM
  SILAC ratio Prph: 1.0
[6]; competitor 25 μM
  SILAC ratio Prph: 1.2
[6]; competitor 50 μM
  SILAC ratio Prph: 0.7
[6]; competitor 100 μM
  SILAC ratio Prph: 0.9
[7]; competitor 10 μM
  SILAC ratio, Scg2: 1.3
[7]; competitor 25 μM
  SILAC ratio, Scg2: 1.5
[7]; competitor 50 μM
  SILAC ratio, Scg2: 1.2
[7]; competitor 100 μM
  SILAC ratio, Scg2: 1.1
[8]; competitor 25 μM
  SILAC ratio, OPA3 (Q505D7): 1.4
  SILAC ratio, Opa3: 1.4
[8]; competitor 10 μM
  SILAC ratio, Opa3: 1.4
[8]; competitor 50 μM
  SILAC ratio, Opa3: 1.5
[8]; competitor 100 μM
  SILAC ratio, Opa3: 1.9

## C=CCN(C)CCCCCCOc1ccc(C(=O)c2ccc(Br)cc2)c(F)c1 [Ro 48-8071, reference compound]
[1]; competitor 25 μM
  SILAC ratio, Ssr4: 1.2
[2]; competitor 25 μM
  SILAC ratio, Tusc3: 1.2
[3]; competitor 25 μM
  SILAC ratio, Nenf: 0.9
[4]; competitor 25 μM
  SILAC ratio Mrpl46: 0.9
[5]; competitor 25 μM
  SILAC ratio, Pmpca: 0.9
[6]; competitor 25 μM
  SILAC ratio Prph: 0.8
[7]; competitor 25 μM
  SILAC ratio, Scg2: 1.1
[8]; competitor 25 μM
  SILAC ratio, OPA3 (Q505D7): 1.4
  SILAC ratio, Opa3: 1.4
